{
  "source": "patent US20120100230A1",
  "about": "“Systems, Devices, and/or Methods for Managing Crops” (DHARMA IP, LLC, priority 2010, published 2012)",
  "experiment": "Solubility of beta-cyclodextrin in water containing ClO2 (slurry test)",
  "type": "physicochemical",
  "conditions": "100 g slurry, 5% beta-cyclodextrin (w/w) in 8000 ppm ClO2 vs ultrapure water, 200 rpm, 3 days",
  "protocol": "However indirect evidence for the complex has been observed. Beta-cyclodextrin has a known solubility in water. If the water contains a guest substance that produces a cyclodextrin complex more soluble than the cyclodextrin alone, more of the cyclodextrin will dissolve into water containing that guest than into plain water. This enhanced solubility has been observed for beta-cyclodextrin in water containing ClO2. Two separate 100 g slurries of beta-cyclodextrin solutions were prepared. […] Both slurries were mixed at 200 rpm for 3 days, at which time the undissolved beta-cyclodextrin was isolated from both solutions and dried for 2 days in a desiccator. […] It is believed, by extension, that ClO2 might form complexes with gamma-cyclodextrin and/or chemically derivatized versions of the natural (alpha- (“α”), beta- (“β”), and gamma- (“γ”)) cyclodextrins. In the case of beta- and/or gamma-cyclodextrin and/or other cyclodextrins having internal cavities larger than that of alpha-cyclodextrin, it might be that the complex(es) formed with ClO2 will incorporate numbers of ClO2 molecules greater than one per cyclodextrin molecule.",
  "data": [
    {"smiles": "OC[C@H]1O[C@@H]2O[C@H]3[C@H](O)[C@@H](O)[C@@H](O[C@H]4[C@H](O)[C@@H](O)[C@@H](O[C@H]5[C@H](O)[C@@H](O)[C@@H](O[C@H]6[C@H](O)[C@@H](O)[C@@H](O[C@H]7[C@H](O)[C@@H](O)[C@@H](O[C@H]8[C@H](O)[C@@H](O)[C@@H](O[C@H]1[C@H](O)[C@H]2O)O[C@@H]8CO)O[C@@H]7CO)O[C@@H]6CO)O[C@@H]5CO)O[C@@H]4CO)O[C@@H]3CO", "note": "[beta-cyclodextrin]", "values": [
      {"measurement": "weight of dried undissolved beta-cyclodextrin from ClO2 containing slurry less than the control slurry", "value": 0.32, "unit": "g"}
    ]}
  ]
}
